Measured values: US9012446B2, “Amino-oxazines and amino-dihydrothiazine compounds as beta-secretase modulators and methods of use” (Amgen Inc., priority 2010, dated 2015)
Values joined by “and” are separate entries in the source; they are usually repeats but may differ in a detail not shown here. Equal entries are not always repeated. Where two headings read alike, the source gives them in different places.

Key:
[1] = molecular target: BACE (Homo sapiens, UniProt P56817); assay: In vitro enzymatic BACE FRET assay; assay type: biochemical; details: average IC50, enzyme assay; read-out: BACE 1 FRET assay
BACE, sequence (P56817 46-501, species assumed): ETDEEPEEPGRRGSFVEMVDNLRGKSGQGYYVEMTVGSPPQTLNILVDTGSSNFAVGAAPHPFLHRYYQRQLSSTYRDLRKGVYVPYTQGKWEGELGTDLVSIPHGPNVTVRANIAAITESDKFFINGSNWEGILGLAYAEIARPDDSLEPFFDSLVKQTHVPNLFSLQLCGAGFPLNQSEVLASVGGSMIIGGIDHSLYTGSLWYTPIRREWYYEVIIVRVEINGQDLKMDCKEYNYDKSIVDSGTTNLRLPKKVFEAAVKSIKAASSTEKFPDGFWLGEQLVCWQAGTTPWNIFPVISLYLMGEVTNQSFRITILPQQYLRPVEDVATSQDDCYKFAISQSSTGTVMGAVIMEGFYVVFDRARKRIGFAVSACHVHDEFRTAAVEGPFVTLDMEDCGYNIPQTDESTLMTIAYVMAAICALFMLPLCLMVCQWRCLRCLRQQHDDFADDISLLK
How it was run: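 BACE (0.2 nM) preincubated 1 h with serially diluted inhibitors in 0.05 M acetate pH 4.2, 10% DMSO, 100 uM genapol. FRET peptide substrate (50 nM) added, 1 h incubation, then stopped with Tris to neutral pH. Fluorescence from cleavage read at […].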

[2] = system: Aβ40; assay: In vitro BACE cell-based assay (Aβ40 sandwich ELISA, cells stably expressing APP)
How it was run: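 APP-stably-expressing cells, grown 24 h in DMEM/10% FBS, received 10-point compound doses starting at 100 μM or 10 μM (0.1% DMSO final). Secreted Aβ40 in supernatants measured by sandwich ELISA with time-resolved europium fluorescence; IC50 from percent inhibition versus concentration.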

[3] = Homo sapiens, HEK293, average IC50, read-out: HEK cell assay
[4] = Homo sapiens, HEK293, average IC50, cell assay, HEK cells

IC50 [1] | IC50 [2, 3] [nM] | IC50 [2, 4] [nM] | IC50 ([2]; average IC50, cell assay, HEK cells) [nM] | IC50 ([2]; average IC50, read-out: HEK cell assay) [nM] | SMILES
0.3 nM | 0.3 | – | – | – | NC1=N[C@@]2(COC1)c1cc(-c3cccnc3F)ccc1Oc1c2cc(-c2cncc(F)c2)nc1F [compound 245]
784 nM | – | 78.1 | – | – | NC1=N[C@]2(CCO1)c1cc(-c3cccnc3)ccc1Oc1c(F)cc(C3=CCOCC3)cc12 [compound 157]
2.2 nM | – | 12.4 | – | – | COc1cc2c(cn1)Oc1ccc(-c3cc(F)ccc3Cl)cc1[C@@]21COCC(N)=N1 [compound 125]
0.5 nM | – | 1.1 | – | – | NC1=N[C@@]2(COC1)c1cc(-c3cncnc3)ccc1Oc1cnc(-c3ccnc(F)c3)cc12 [compound 78]
332 nM | – | 198 | – | – | CC1(C#Cc2cnc3c(c2)[C@@]2(COCC(N)=N2)c2cc(-c4cccnc4F)ccc2O3)COC1 [compound 88]
419 nM | – | 273 | – | – | CC(C)(C)C#Cc1cnc2c(c1)[C@@]1(COCC(N)=N1)c1cc(-c3cncnc3)c(F)cc1O2 [compound 97]
4 nM | 11 | – | – | – | NC1=N[C@@]2(CCS1)c1cc(-c3cccnc3F)ccc1Oc1ncc(C3=CCCOC3)cc12 [compound 272]
1.5 nM | – | 15.6 | – | – | COc1cc(F)c2c(c1)[C@]1(COCC(N)=N1)c1cc(-c3cccnc3F)ccc1O2 [Example 48, (S)-4′-fluoro-7′-(2-fluoropyridin-3-yl)-2′-methoxy-2,6-dihydrospiro[[1,4]oxazine-3,9′-xanthen]-5-amine]
553 nM | 248 | – | – | – | NC1=N[C@]2(CCO1)c1cc(-c3cccnc3F)ccc1Oc1c(F)cc(-c3ccncc3)cc12 [compound 165]
88.3 nM | – | – | – | 134 | NC1=N[C@@]2(CO[C@@H]1c1ccccc1)c1cc(-c3cccnc3F)ccc1Oc1cnc(Cl)cc12 [compound 208]
20.6 nM | – | 24.2 | – | – | NC1=N[C@@]2(CCO1)c1cc(-c3cccnc3F)ccc1Oc1c2cc(-c2cccnc2F)nc1F [compound 105]
6.3 nM | – | 5.9 | – | – | CC1(COc2cc(F)c3c(c2)[C@]2(CCOC(N)=N2)c2cc(-c4cccnc4)ccc2O3)COC1 [compound 160]
0.7 nM | 0.7 | – | – | – | N#Cc1cccc(-c2ccc3c(c2)[C@@]2(CCOC(N)=N2)c2cc(C4=CCOCC4)nc(F)c2O3)c1 [compound 234]
1190 nM | 1070 | – | – | – | NC1=N[C@]2(CCO1)c1cc(-c3cccnc3F)ccc1Oc1c(F)cc(C3=CCCOC3)cc12 [compound 172]
0.3 nM | 0.7 | – | – | – | NC1=N[C@@]2(CCO1)c1cc(-c3cncc(F)c3)ccc1Oc1c2cc(C2=CCOCC2)nc1F [compound 228]
2780 nM | – | 333 | – | – | CC1(COc2cc(F)c3c(c2)[C@@]2(CCOC(N)=N2)c2cc(-c4cccnc4)ccc2O3)COC1 [compound 161]
12 nM | 5.6 | – | – | – | NC1=N[C@@]2(CCO1)c1cc(-c3cccnc3F)ccc1Oc1ncc(C3=CCOCC3)cc12 [compound 269]
293 nM | 171 | – | – | – | NC1=N[C@]2(CCO1)c1cc(-c3cccnc3F)ccc1Oc1c2cc(C2=CCCOC2)nc1F [compound 238]

Continued, compound first:

SMILES | IC50 [1] | IC50 [2, 3] [nM] | IC50 [2, 4] [nM] | IC50 ([2]; average IC50, cell assay, HEK cells) [nM] | IC50 ([2]; average IC50, read-out: HEK cell assay) [nM]
CC(C)Oc1cc2c(cn1)Oc1ccc(-c3cccnc3F)cc1[C@@]21COCC(N)=N1 [compound 259] | 1.2 nM | 4 | – | – | –
NC1=N[C@]2(CCO1)c1cc(-c3cccnc3F)ccc1Oc1c2cc(-c2cccnc2)nc1F [compound 227] | 489 nM | 101 | – | – | –
NC1=N[C@]2(CCO1)c1cc(-c3cccnc3F)ccc1Oc1c(F)cc(N3CC[C@@H](F)C3)cc12 [compound 177] | 892 nM | 2530 | – | – | –
CC(C)(C)COc1cc2c(c(F)n1)Oc1ccc(-c3cccnc3F)cc1[C@]21COCC(N)=N1 [Example 59B, (R)-1-fluoro-7-(2-fluoropyridin-3-yl)-3-(neopentyloxy)-2′,6′-dihydrospiro[chromeno[2,3-c]pyridine-5,3′-[1,4]oxazin]-5′-amine] | 84.9 nM | 370 | – | – | –
CC1(COc2cc(F)c3c(c2)[C@]2(COCC(N)=N2)c2cc(N4CCC(F)(F)CC4)ccc2O3)COC1 [Example 46, (S)-7′-(4,4-difluoropiperidin-1-yl)-4′-fluoro-2′-((3-methyloxetan-3-yl)methoxy)-2,6-dihydrospiro[[1,4]oxazine-3,9′-xanthen]-5-amine] | 9.4 nM | 32.1 | – | – | –
N#Cc1cccc(-c2ccc3c(c2)[C@]2(CCOC(N)=N2)c2cc(-c4ccnc(F)c4)nc(F)c2O3)c1 [compound 222] | 170 nM | 1580 | – | – | –
NC1=N[C@]2(CCO1)c1cc(-c3cccnc3F)ccc1Oc1c(F)cc(C3=CCOCC3)cc12 [compound 169] | 3070 nM | 3400 | – | – | –
NC1=N[C@@]2(CCO1)c1cc(-c3cccnc3F)ccc1Oc1c2cc(-c2cccnc2)nc1F [Example 241, (S)-1-fluoro-7-(2-fluoropyridin-3-yl)-3-(pyridin-3-yl)-5′,6′-dihydrospiro[chromeno[2,3-c]pyridine-5,4′-[1,3]oxazin]-2′-amine] | 0.6 nM | 0.9 | – | – | –
NC1=N[C@@]2(COC1)c1cc(O)ccc1Oc1c(F)cc(-c3ccnc(F)c3)cc12 [Example 39, (S)-5-amino-4′-fluoro-2′-(2-fluoropyridin-4-yl)-2,6-dihydrospiro[[1,4]oxazine-3,9′-xanthen]-7′-ol] | 368 nM | – | 2590 | – | –
NC1=N[C@]2(CCO1)c1cc(-c3cccnc3F)ccc1Oc1cnc(-c3cccnc3F)cc12 [compound 100] | 49.6 nM | – | – | 184 | –
CC1(COc2cc(F)c3c(c2)[C@]2(COCC(N)=N2)c2cc(-c4cccnc4F)ccc2O3)COC1 [compound 83] | 0.4 nM | – | 0.4 | – | –
NC1=N[C@@]2(COC1)c1cc(-c3cc(F)ccc3F)ccc1Oc1ncc(-c3ccncc3)cc12 [compound 217] | 3.6 nM | 4.3 | – | – | –
NC1=N[C@@]2(COC1)c1cc(-c3cccnc3F)ccc1Oc1cnc(OC(F)F)cc12 [Example 49, (S)-3-(difluoromethoxy)-7-(2-fluoropyridin-3-yl)-2′,6′-dihydrospiro[chromeno[2,3-c]pyridine-5,3′-[1,4]oxazin]-5′-amine] | 6.7 nM | 11.5 | – | – | –
CC#Cc1cncc(-c2ccc3c(c2)[C@@]2(COCC(N)=N2)c2cc(-c4ccnc(F)c4)ncc2O3)c1 [compound 75] | 0.5 nM | – | 2.8 | – | –
CC(C)(C)COc1ccc2c(c1)[C@]1(COCC(N)=N1)c1cc(-c3cccnc3F)ccc1O2 [Example 67, (3S)-2′-(2,2-dimethylpropoxy)-7′-(2-fluoro-3-pyridinyl)-6H-spiro[1,4-oxazine-3,9′-xanthen]-5-amine] | 2 nM and 0.7 nM | 13.1 | 15.5 | – | –
NC1=N[C@@]2(COC1)c1cc(-c3cc(Cl)ccc3F)ccc1Oc1ncc(N3CCOCC3)cc12 [compound 93] | 0.7 nM | – | 3.9 | – | –
NC1=N[C@]2(COC1)c1cc(-c3cccnc3F)ccc1Oc1c(F)cc(N3CCOCC3)cc12 [35B] | 211 nM | – | 86.2 | – | –
NC1=N[C@]2(CO[C@H]1C1CCCCC1)c1cc(-c3cccnc3F)ccc1Oc1cnc(Cl)cc12 (racemic) [Example 56B, (3′R,6′S)-3-chloro-6′-cyclohexyl-7-(2-fluoropyridin-3-yl)-2′,6′-dihydrospiro[chromeno[2,3-c]pyridine-5,3′-[1,4]oxazin]-5′-amine] | 1280 nM | 452 | – | – | –
CC1(COc2cc(F)c3c(c2)[C@@]2(CCOC(N)=N2)c2cc(-c4cccnc4F)ccc2O3)COC1 [compound 171] | 525 nM | 245 | – | – | –
NC1=N[C@@]2(CCO1)c1cc(-c3cccnc3F)ccc1Oc1cnc(-c3cncc(Cl)c3)cc12 [compound 141] | 9.5 nM | – | 22.5 | – | –
CC(C)(C)C#Cc1ccc2c(c1)[C@@]1(COCC(N)=N1)c1cc(-c3ccnc(F)c3)cnc1O2 [compound 219] | 5.9 nM | 24.8 | – | – | –
